Converted amounts (≈) assume the structure as drawn.
Key:
Trichomonas vaginalis = assay: Antimicrobial activity against Trichomonas vaginalis after 48 hrs by neutral red staining based invert microscopic analysis; assay type: functional
Mu-type opioid receptor = Mu-type opioid receptor (Homo sapiens, UniProt P35372); assay: Displacement of [3H]DAMGO from human mu opioid receptor expressed in CHO cell membranes by microbeta scintillation counting analysis
[1] = target: Kappa-type opioid receptor (Homo sapiens, UniProt P41145); assay: Displacement of [3H]U-69,593 from human kappa opioid receptor expressed in CHO cell membranes by microbeta scintillation counting analysis
Sequence of Kappa-type opioid receptor (P41145 whole entry): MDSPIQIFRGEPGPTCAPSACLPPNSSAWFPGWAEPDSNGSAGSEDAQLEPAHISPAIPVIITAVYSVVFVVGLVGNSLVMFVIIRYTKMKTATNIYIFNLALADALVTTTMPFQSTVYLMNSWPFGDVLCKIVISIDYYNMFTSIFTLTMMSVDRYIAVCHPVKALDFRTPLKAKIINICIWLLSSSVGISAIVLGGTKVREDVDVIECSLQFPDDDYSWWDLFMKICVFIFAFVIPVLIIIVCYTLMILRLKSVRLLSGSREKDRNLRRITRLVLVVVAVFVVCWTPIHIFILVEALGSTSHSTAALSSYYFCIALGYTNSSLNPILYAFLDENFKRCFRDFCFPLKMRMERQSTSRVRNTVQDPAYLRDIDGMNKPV

[2] = target: Delta-type opioid receptor (Homo sapiens, UniProt P41143); assay: Displacement of [3H]DPDPE from human delta opioid receptor expressed in CHO cell membranes by microbeta scintillation counting analysis
Sequence of Delta-type opioid receptor (P41143 whole entry): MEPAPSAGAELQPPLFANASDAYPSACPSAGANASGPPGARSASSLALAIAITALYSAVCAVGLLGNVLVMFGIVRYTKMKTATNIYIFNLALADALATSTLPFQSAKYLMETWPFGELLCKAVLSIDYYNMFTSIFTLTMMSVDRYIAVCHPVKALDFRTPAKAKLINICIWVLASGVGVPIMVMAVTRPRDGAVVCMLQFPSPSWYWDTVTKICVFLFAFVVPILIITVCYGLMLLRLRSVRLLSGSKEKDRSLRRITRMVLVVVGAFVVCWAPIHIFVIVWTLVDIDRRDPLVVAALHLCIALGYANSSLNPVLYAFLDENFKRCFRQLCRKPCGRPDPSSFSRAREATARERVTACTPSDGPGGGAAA

[3] = Antimicrobial activity against Tritrichomonas mobilensis after 48 hrs by neutral red staining based invert microscopic analysis; assay type: functional

Sequence of Mu-type opioid receptor (P35372 whole entry): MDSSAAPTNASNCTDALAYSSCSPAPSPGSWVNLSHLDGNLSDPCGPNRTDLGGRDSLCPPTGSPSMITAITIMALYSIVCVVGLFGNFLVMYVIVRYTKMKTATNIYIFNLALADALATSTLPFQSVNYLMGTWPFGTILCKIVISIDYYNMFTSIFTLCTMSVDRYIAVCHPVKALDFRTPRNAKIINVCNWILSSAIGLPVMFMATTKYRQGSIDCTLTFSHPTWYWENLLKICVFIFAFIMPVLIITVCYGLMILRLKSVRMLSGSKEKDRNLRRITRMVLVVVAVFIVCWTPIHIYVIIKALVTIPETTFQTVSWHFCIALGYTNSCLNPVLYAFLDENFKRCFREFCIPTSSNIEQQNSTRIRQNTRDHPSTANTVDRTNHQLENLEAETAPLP

| Molecule | MIC (Trichomonas vaginalis) [µM] | IC50 (Trichomonas vaginalis) [µM] | Ki (Mu-type opioid receptor; read-out: Ki) [nM] | Ki ([1]; read-out: Ki) [nM] | Ki ([2]; read-out: Ki) [nM] | further results |
| --- | --- | --- | --- | --- | --- | --- |
| CN1CC[C@]23Cc4nc5ccccc5cc4C[C@@]2(O)[C@H]1Cc1ccc(O)cc13 | 80 (≈ 29.8 µg/mL) | – | – | – | – | – |
| O=C1/C(=C/c2ccc(F)cc2)C[C@@]2(O)[C@H]3Cc4ccc(O)c5c4[C@@]2(CCN3CC2CC2)[C@H]1O5 | 20 (≈ 8.95 µg/mL) | 12.8 | 20.9 | 108 | 34.5 | – |
| COc1ccc(/C=C2\C[C@@]3(O)[C@H]4Cc5ccc(O)c6c5[C@@]3(CCN4CC3CC3)[C@@H](O6)C2=O)cc1 | 20 (≈ 9.19 µg/mL) | 14.1 | 5.16 | 27.8 | 1.8 | – |
| CC1(C)SSC(C)(C)[C@H](NC(=O)[C@@H](N)Cc2ccc(O)cc2)C(=O)NCC(=O)N[C@@H](Cc2ccccc2)C(=O)N[C@@H]1C(=O)O | > 320 | – | – | – | – | – |
| CN(C)c1ccc(/C=C2\C[C@@]3(O)[C@H]4Cc5ccc(O)c6c5[C@@]3(CCN4CC3CC3)[C@@H](O6)C2=O)cc1 | 20 (≈ 9.45 µg/mL) | 13.2 | 17.2 | 28.6 | 3.72 | – |
| O=C1C(Cc2ccccc2)C[C@@]2(O)[C@H]3Cc4ccc(O)c5c4[C@@]2(CCN3CC2CC2)[C@H]1O5 (some centres not stated) | 80 (≈ 34.5 µg/mL) | – | – | – | – | – |
| O=C1/C(=C/c2ccc(C(F)(F)F)cc2)C[C@@]2(O)[C@H]3Cc4ccc(O)c5c4[C@@]2(CCN3CC2CC2)[C@H]1O5 | 20 (≈ 9.95 µg/mL) | 13.7 | 192 | 176 | 83.9 | – |
| O=C1/C(=C/c2ccccc2Cl)C[C@@]2(O)[C@H]3Cc4ccc(O)c5c4[C@@]2(CCN3CC2CC2)[C@H]1O5 | > 320 | – | – | – | – | – |
| O=C1/C(=C/c2cccs2)C[C@@]2(O)[C@H]3Cc4ccc(O)c5c4[C@@]2(CCN3CC2CC2)[C@H]1O5 | 40 (≈ 17.4 µg/mL) | 21.6 | – | – | – | – |
| O=C1C(Cc2ccc(F)cc2)C[C@@]2(O)[C@H]3Cc4ccc(O)c5c4[C@@]2(CCN3CC2CC2)[C@H]1O5 (some centres not stated) | > 320 | – | – | – | – | – |
| COc1ccc(/C=C2\C[C@@]3(O)[C@H]4Cc5ccc(OC)c6c5[C@@]3(CCN4CC3CC3)[C@@H](O6)C2=O)cc1 | 80 (≈ 37.9 µg/mL) | – | – | – | – | – |
| O=C1/C(=C/c2ccc(Cl)cc2)C[C@@]2(O)[C@H]3Cc4ccc(O)c5c4[C@@]2(CCN3CC2CC2)[C@H]1O5 | 20 (≈ 9.28 µg/mL) | 12.7 | 6.13 | 78.6 | 8.22 | – |
| O=C1/C(=C/c2ccc(Br)cc2)C[C@@]2(O)[C@H]3Cc4ccc(O)c5c4[C@@]2(CCN3CC2CC2)[C@H]1O5 | 20 (≈ 10.2 µg/mL) | 11.2 | 5.04 | 70.4 | 4.19 | – |
| O=C1/C(=C/c2ccccc2Br)C[C@@]2(O)[C@H]3Cc4ccc(O)c5c4[C@@]2(CCN3CC2CC2)[C@H]1O5 | 80 (≈ 40.7 µg/mL) | – | – | – | – | – |
| O=C1/C(=C/c2cccc(C(F)(F)F)c2)C[C@@]2(O)[C@H]3Cc4ccc(O)c5c4[C@@]2(CCN3CC2CC2)[C@H]1O5 | 80 (≈ 39.8 µg/mL) | – | – | – | – | – |
| O=C1/C(=C/c2ccccc2C(F)(F)F)C[C@@]2(O)[C@H]3Cc4ccc(O)c5c4[C@@]2(CCN3CC2CC2)[C@H]1O5 | 80 (≈ 39.8 µg/mL) | – | – | – | – | – |
| O=C1/C(=C/c2cccc(F)c2)C[C@@]2(O)[C@H]3Cc4ccc(O)c5c4[C@@]2(CCN3CC2CC2)[C@H]1O5 | 20 (≈ 8.95 µg/mL) | 14.2 | 10.7 | 49 | 8.37 | – |
| COc1ccc2c3c1O[C@H]1C(=O)/C(=C/c4ccc(F)cc4)C[C@@]4(O)[C@@H](C2)N(CC2CC2)CC[C@]314 | 80 (≈ 36.9 µg/mL) | – | – | – | – | – |
| O=C1/C(=C/c2c(Cl)cccc2Cl)C[C@@]2(O)[C@H]3Cc4ccc(O)c5c4[C@@]2(CCN3CC2CC2)[C@H]1O5 | > 320 | – | – | – | – | – |
| COc1cccc(/C=C2\C[C@@]3(O)[C@H]4Cc5ccc(O)c6c5[C@@]3(CCN4CC3CC3)[C@@H](O6)C2=O)c1 | 80 (≈ 36.8 µg/mL) | – | – | – | – | – |

| Molecule | MIC (Trichomonas vaginalis) [µM] | IC50 (Trichomonas vaginalis) [µM] | Ki (Mu-type opioid receptor; read-out: Ki) [nM] | Ki ([1]; read-out: Ki) [nM] | Ki ([2]; read-out: Ki) [nM] | further results |
| --- | --- | --- | --- | --- | --- | --- |
| N#Cc1ccc(/C=C2\C[C@@]3(O)[C@H]4Cc5ccc(O)c6c5[C@@]3(CCN4CC3CC3)[C@@H](O6)C2=O)cc1 | 20 (≈ 9.09 µg/mL) | 13.2 | 32.7 | 209 | 18.1 | – |
| COc1ccccc1/C=C1\C[C@@]2(O)[C@H]3Cc4ccc(O)c5c4[C@@]2(CCN3CC2CC2)[C@@H](O5)C1=O | > 320 | – | – | – | – | – |
| COc1ccc(CC2C[C@@]3(O)[C@H]4Cc5ccc(O)c6c5[C@@]3(CCN4CC3CC3)[C@@H](O6)C2=O)cc1 (some centres not stated) | > 320 | – | – | – | – | – |
| COc1ccc2c3c1O[C@H]1C(=O)/C(=C/c4ccccc4)C[C@@]4(O)[C@@H](C2)N(CC2CC2)CC[C@]314 | 80 (≈ 35.5 µg/mL) | – | 499 | > 1000 | 100 | – |
| O=C1/C(=C/c2ccc(I)cc2)C[C@@]2(O)[C@H]3Cc4ccc(O)c5c4[C@@]2(CCN3CC2CC2)[C@H]1O5 | 20 (≈ 11.1 µg/mL) | 10.5 | 19.9 | 126 | 2.15 | MIC [3]: > 320 µM |
| O=C1/C(=C/c2ccco2)C[C@@]2(O)[C@H]3Cc4ccc(O)c5c4[C@@]2(CCN3CC2CC2)[C@H]1O5 | 160 (≈ 67.1 µg/mL) | – | – | – | – | – |
| N#Cc1cccc(/C=C2\C[C@@]3(O)[C@H]4Cc5ccc(O)c6c5[C@@]3(CCN4CC3CC3)[C@@H](O6)C2=O)c1 | 40 (≈ 18.2 µg/mL) | 18 | – | – | – | – |
| COc1ccc2c3c1O[C@H]1C(=O)C(Cc4ccccc4)C[C@@]4(O)[C@@H](C2)N(CC2CC2)CC[C@]314 (some centres not stated) | > 320 | – | – | – | – | – |
| O=C1/C(=C/c2ccnc3ccccc23)C[C@@]2(O)[C@H]3Cc4ccc(O)c5c4[C@@]2(CCN3CC2CC2)[C@H]1O5 | 40 (≈ 19.2 µg/mL) | 17.2 | – | – | – | – |
| O=C1/C(=C/c2ccccc2F)C[C@@]2(O)[C@H]3Cc4ccc(O)c5c4[C@@]2(CCN3CC2CC2)[C@H]1O5 | 20 (≈ 8.95 µg/mL) | 18.6 | 12.8 | 35.1 | 2.94 | – |
| COC(=O)/C=C/C(=O)N[C@@H]1CC[C@@]2(O)[C@H]3Cc4ccc(O)c5c4[C@@]2(CCN3CC2CC2)[C@H]1O5 | 80 (≈ 36.4 µg/mL) | – | – | – | – | – |
| O=C1/C(=C/c2ccccc2)C[C@@]2(O)[C@H]3Cc4ccc(O)c5c4[C@@]2(CCN3CC2CC2)[C@H]1O5 [BNTX] | 40 (≈ 17.2 µg/mL) | 21.7 | 11 | 32.8 | 2.81 | MIC [3]: > 320 µM |
| Cc1ncc([N+](=O)[O-])n1CCO [METRONIDAZOLE] | 10 (≈ 1.71 µg/mL) | 5.2 | – | – | – | Ki (Mu-type opioid receptor): Not Active; Ki [1]: Not Active; Ki [2]: Not Active; MIC [3]: 2.5 µM (≈ 0.428 µg/mL) |
| CN(C(=O)/C=C/c1ccoc1)[C@@H]1CC[C@@]2(O)[C@H]3Cc4ccc(O)c5c4[C@@]2(CCN3CC2CC2)[C@H]1O5 [NALFURAFINE] | 80 (≈ 38.1 µg/mL) | – | – | – | – | – |
| O=C1CC[C@@]2(O)[C@H]3Cc4ccc(O)c5c4[C@@]2(CCN3CC2CC2)[C@H]1O5 [NALTREXONE] | 80 (≈ 27.3 µg/mL) | – | – | – | – | – |
| Oc1ccc2c3c1O[C@H]1c4oc5ccccc5c4C[C@@]4(O)[C@@H](C2)N(CC2CC2)CC[C@]314 [NALTRIBEN] | 80 (≈ 33.2 µg/mL) | – | – | – | – | – |
| Oc1ccc2c3c1O[C@H]1c4[nH]c5ccccc5c4C[C@@]4(O)[C@@H](C2)N(CC2CC2)CC[C@]314 [NALTRINDOLE] | 80 (≈ 33.2 µg/mL) | – | – | – | – | – |
| Oc1ccc2c3c1O[C@H]1c4[nH]c5c(c4C[C@@]4(O)[C@@H](C2)N(CC2CC2)CC[C@]314)C[C@@]1(O)[C@H]2Cc3ccc(O)c4c3[C@@]1(CCN2CC1CC1)[C@H]5O4 [NORBINALTORPHIMINE] | > 320 | – | – | – | – | – |
| C=CCN1C[C@H](C)N([C@H](c2ccc(C(=O)N(CC)CC)cc2)c2cccc(OC)c2)C[C@H]1C [SNC-80] | > 320 | – | – | – | – | – |
| H-AFEVVG-NH2 | > 320 | – | – | – | – | – |

From ChEMBL document CHEMBL4043100, “Antitrichomonal activity of δ opioid receptor antagonists, 7-benzylidenenaltrexone derivatives” (Bioorg Med Chem, 2017)
